ChEMBL document CHEMBL1201862, “PubChem BioAssay data set” (2004)
Active and inactive are the calls of the source.

Tests used:
Caspase-3 = target: T1, Caspase-3 (Homo sapiens, UniProt P42574); format: functional;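 also: Dose-response selectivity test against caspase-3 for candidate inhibitors of sentrin-specific proteases (SENPs)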
T1 sequence (P42574 whole entry): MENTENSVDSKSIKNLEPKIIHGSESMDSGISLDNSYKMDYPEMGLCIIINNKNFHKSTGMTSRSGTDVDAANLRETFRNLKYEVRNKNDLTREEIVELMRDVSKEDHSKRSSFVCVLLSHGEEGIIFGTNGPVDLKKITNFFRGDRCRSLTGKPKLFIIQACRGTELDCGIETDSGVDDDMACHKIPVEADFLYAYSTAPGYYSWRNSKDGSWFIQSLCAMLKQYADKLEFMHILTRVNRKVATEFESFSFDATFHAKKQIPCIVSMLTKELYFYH

[1] = target: Serine/threonine-protein phosphatase PP1-alpha catalytic subunit (Homo sapiens, UniProt P62136); assay: PP1 phosphatase inhibitors, dose response, biochemical, fluorescence (AID 2394)
[2] = ZM109 Env clade C HIV-1 fusion inhibitors, dose response, HeLa effector, CEM target cells, luciferase, cherry-pick (AID 652058); format: functional, cell-based
[3] = target: T2, Mannose-6-phosphate isomerase (Homo sapiens, UniProt P34949); assay: human PMI inhibitors, high substrate, primary screen, biochemical, fluorescence intensity, high mannose 6-phosphate (AID 1220)
T2 sequence (P34949 whole entry): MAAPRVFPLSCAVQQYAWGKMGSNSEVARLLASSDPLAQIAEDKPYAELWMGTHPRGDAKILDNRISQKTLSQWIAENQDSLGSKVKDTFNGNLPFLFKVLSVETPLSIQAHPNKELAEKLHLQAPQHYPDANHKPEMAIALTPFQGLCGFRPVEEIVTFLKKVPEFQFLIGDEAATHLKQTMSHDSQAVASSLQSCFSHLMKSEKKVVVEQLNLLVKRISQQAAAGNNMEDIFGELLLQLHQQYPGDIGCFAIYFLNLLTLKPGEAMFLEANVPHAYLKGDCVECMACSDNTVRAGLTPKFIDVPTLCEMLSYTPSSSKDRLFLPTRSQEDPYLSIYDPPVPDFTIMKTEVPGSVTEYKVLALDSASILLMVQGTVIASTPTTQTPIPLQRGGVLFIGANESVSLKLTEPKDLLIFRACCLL

[4] = target: Peroxisome proliferator-activated receptor gamma/Nuclear receptor coactivator 3 (Homo sapiens, UniProt P37231); format: functional;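 also: agonist potency for raising coactivator recruitment to the receptor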
CHO = assay: cytotoxicity in TLR9-MyD88 CHO cells, dose response, cytotoxicity control for TLR9-MyD88 binding inhibitor project, cell-based, luminescence (AID 588339); format: functional, hamster; details: Cricetulus griseus;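 also: CHO cells stably coexpressing TLR9 and MyD88 fusions from primary screen; compound exposure lasted 48 hours before viability readout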
INS1 = assay: beta cell apoptosis inhibitors, cytokine rescue, dose response, luminescence, retest (AID 449756); format: functional, cell-based; details: Rattus norvegicus;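 also: cell death triggered by IL-1 beta plus TNF-alpha plus IFN-gamma mixture; protective hits raise ATP signal compared with cytokine alone wells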
[5] = HeLa cell cytotoxicity, dose response, cytotoxicity control for MgcRacGAP inhibitor project (AID 624300); format: functional
[6] = HepG2 cell cytotoxicity, dose response, cytotoxicity control for Shn3 inhibitor project, CellTiter-Glo, cherry-picked (AID 624134); format: functional, cell-based
[7] = target: T3, Rac GTPase-activating protein 1 (Homo sapiens, UniProt Q9H0H5); assay: MgcRacGAP GTPase-activating activity inhibitors, confirmation, biochemical, ADP Hunter fluorescence, primary and confirmatory (AID 624330); format: functional
T3 sequence (Q9H0H5 whole entry): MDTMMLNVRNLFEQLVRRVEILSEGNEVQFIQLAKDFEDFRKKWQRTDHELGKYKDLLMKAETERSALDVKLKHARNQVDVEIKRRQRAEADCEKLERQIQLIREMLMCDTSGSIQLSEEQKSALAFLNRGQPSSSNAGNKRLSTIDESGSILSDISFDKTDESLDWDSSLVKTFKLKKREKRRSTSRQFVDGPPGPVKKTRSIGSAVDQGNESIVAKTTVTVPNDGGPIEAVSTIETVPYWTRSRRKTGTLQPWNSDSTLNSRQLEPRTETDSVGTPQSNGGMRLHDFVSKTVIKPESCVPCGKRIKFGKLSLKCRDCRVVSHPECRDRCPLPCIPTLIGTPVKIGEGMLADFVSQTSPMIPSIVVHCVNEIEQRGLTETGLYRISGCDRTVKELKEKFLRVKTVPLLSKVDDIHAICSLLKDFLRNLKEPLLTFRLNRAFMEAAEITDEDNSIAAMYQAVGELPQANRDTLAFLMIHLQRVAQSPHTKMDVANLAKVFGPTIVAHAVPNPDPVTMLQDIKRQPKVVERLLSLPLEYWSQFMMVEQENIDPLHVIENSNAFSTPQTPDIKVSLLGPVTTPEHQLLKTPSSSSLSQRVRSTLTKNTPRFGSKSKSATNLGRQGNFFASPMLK

[8] = target: T4, Heat shock factor protein 1 (Mus musculus, UniProt P38532); assay: inhibition of MG132-induced HSE-luciferase signal, confirmation, cell-based, NIH3T3, luminescence, dose retest (AID 2382); format: functional;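 also: NIH3T3 fibroblasts with HSF1-driven luciferase reporter stressed by proteasome inhibitor MG132; luminescence from HSF1-driven luciferase expression after 8 hours of MG132 stress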
T4 sequence (P38532 whole entry): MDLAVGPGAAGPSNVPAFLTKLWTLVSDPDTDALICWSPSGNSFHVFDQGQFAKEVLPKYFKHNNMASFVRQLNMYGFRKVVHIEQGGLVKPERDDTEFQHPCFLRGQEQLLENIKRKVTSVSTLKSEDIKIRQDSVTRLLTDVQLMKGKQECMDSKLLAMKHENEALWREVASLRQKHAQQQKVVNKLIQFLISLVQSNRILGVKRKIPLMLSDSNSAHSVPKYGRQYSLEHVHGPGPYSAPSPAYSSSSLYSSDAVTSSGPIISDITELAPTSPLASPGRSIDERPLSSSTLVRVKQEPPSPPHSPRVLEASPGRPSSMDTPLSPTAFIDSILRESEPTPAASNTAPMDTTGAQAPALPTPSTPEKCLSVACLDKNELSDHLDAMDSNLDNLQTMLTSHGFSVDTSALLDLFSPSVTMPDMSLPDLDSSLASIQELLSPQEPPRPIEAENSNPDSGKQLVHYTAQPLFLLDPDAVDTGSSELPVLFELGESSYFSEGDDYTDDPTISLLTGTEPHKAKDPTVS

Serine/threonine-protein phosphatase PP1-alpha catalytic subunit, sequence (P62136 whole entry, the tested form may be a part): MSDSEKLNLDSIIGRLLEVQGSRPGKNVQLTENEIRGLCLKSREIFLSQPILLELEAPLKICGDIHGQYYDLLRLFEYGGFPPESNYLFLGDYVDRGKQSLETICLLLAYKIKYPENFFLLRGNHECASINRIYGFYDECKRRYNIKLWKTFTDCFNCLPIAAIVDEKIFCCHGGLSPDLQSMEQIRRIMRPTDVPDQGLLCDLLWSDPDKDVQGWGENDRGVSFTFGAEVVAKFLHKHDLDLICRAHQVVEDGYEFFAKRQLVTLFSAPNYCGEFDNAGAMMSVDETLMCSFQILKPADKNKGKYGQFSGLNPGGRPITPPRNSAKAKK
Peroxisome proliferator-activated receptor gamma/Nuclear receptor coactivator 3, sequence (P37231 whole entry, the tested form may be a part): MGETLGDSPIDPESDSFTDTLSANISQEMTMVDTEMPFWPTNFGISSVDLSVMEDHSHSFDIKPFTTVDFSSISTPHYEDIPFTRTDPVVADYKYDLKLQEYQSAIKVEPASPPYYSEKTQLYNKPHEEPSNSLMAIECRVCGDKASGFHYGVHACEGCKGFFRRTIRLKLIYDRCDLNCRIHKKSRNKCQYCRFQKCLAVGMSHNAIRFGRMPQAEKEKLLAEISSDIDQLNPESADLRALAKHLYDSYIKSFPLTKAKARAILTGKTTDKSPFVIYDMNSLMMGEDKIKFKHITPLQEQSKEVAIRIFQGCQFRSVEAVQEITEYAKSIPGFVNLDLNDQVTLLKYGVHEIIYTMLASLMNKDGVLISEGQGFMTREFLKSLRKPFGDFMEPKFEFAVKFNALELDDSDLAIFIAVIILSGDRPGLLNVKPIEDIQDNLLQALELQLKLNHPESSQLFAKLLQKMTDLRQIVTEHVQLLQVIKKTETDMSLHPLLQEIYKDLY
Peroxisome proliferator-activated receptor gamma/Nuclear receptor coactivator 3, sequence (Q9Y6Q9 whole entry, further chain, the tested form may be a part): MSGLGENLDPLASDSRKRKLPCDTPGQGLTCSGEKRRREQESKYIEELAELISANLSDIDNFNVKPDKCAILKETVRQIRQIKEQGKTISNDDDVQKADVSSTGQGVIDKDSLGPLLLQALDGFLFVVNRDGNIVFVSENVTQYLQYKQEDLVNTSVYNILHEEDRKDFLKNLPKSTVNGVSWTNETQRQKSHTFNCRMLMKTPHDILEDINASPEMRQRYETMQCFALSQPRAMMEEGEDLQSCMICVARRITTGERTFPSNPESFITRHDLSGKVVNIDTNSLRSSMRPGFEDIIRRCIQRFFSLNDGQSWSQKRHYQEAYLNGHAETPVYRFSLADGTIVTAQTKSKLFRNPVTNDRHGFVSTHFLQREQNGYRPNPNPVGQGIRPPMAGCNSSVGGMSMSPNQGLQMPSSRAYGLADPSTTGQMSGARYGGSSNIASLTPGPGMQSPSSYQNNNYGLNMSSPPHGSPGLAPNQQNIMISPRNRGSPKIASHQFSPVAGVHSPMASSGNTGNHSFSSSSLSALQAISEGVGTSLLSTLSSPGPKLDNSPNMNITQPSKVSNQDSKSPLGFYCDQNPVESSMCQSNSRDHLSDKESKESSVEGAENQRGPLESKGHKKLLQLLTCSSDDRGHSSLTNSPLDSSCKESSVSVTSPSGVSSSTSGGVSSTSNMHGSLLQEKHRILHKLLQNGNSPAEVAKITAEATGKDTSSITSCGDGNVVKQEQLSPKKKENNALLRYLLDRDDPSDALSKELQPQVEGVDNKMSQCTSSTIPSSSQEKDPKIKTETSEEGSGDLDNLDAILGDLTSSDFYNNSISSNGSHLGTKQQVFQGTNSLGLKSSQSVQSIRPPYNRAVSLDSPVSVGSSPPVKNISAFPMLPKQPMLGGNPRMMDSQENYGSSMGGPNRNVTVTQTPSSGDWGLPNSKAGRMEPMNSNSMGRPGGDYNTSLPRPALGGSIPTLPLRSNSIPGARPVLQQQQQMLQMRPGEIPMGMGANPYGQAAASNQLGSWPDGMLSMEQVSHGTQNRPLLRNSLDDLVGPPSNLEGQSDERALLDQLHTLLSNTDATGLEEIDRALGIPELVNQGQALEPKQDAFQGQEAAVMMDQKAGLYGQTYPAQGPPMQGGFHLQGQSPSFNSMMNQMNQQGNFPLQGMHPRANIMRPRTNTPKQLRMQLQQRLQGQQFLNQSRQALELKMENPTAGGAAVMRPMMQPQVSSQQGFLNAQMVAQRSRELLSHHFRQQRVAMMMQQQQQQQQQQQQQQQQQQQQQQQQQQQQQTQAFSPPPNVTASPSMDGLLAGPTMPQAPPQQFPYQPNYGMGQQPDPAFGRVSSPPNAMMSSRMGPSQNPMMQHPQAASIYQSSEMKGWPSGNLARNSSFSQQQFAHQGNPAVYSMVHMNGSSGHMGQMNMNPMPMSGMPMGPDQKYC

With O=C(NC1(O)C(=O)c2ccccc2C1=O)c1ccccc1 the IC50 (Caspase-3) was 69.9 µM (active) and the IC50 [1] was 49 µM (not active).

For CCCCCCCCCCCCCCCCn1cc[n+](C)c1, the AC50 [2] was 23.5 µM (active).

In the case of Cc1cc(C)nc(/N=c2/ssnc2Cl)c1, the IC50 [3] is reported as 28.8 µM (active) and the EC50 [4] is reported as > 79.4 µM (not active).

In the case of O=C(Nc1ccccc1Cl)/C(Cl)=C(\Cl)[S+]([O-])c1ccccc1 (stereo unspecified), the IC50 (CHO) is reported as 1.18 µM (active), the AC50 (INS1) is reported as 2.07 µM (active) and the CC50 [5] is reported as 28.9 µM (active). The AC50 [6] was 10.8 µM (active), the IC50 [7] was 22.8 µM (active) and the EC50 [8] was 3.56 µM (active).
